In article PMC11233931, “Remodeling tumor‐associated macrophage for anti‐cancer effects by rational design of irreversible inhibition of mitogen‐activated protein kinase‐activated protein kinase 2” (MedComm, 2024):

Columns and labels:
Experiment in all cases: Eurofins kinase selectivity profile against 380 other human recombinant kinases (Table S2)
Format in all cases: biochemical
[1] = target: T1, 380 human recombinant protein kinases (Homo sapiens, UniProt P51957); conditions: NEK4(h), read-out: Inhibition rate
T1 construct: purchased Eurofins (Celle Lévescault)
T1 sequence (P51957 whole entry): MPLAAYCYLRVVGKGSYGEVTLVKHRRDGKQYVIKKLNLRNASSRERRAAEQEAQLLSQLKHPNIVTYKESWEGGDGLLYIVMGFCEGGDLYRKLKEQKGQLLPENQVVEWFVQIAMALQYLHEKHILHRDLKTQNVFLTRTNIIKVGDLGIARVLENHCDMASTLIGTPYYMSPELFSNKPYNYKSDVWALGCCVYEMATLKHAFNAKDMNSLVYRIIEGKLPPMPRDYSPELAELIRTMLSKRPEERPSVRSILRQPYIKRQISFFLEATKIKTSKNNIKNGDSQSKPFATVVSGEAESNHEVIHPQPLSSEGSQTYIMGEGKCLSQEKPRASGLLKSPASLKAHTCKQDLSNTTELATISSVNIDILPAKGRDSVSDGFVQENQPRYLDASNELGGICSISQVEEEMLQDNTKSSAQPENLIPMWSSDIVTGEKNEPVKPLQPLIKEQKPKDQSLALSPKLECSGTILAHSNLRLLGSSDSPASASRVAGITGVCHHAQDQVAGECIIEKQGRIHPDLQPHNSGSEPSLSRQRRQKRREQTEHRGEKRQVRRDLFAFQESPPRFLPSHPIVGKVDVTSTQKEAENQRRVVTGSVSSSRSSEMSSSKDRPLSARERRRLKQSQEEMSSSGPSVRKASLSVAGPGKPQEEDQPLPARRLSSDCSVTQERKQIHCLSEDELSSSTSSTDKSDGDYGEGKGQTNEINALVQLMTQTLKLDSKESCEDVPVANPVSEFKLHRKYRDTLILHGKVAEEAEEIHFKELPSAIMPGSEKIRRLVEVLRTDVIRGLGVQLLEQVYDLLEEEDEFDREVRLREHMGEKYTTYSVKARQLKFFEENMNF
Outline: (§1)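 Values come from a contract kinase-profiling service that tested the compound at multiple concentrations across 380 recombinant human kinases, as an off-target check against the MK2 activity.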

[2] = target: T2, 380 human recombinant protein kinases (Homo sapiens, UniProt Q9UKI8); conditions: TLK1(h), read-out: Inhibition rate (%)
T2 construct: purchased Eurofins (Celle Lévescault)
T2 sequence (Q9UKI8 1-766): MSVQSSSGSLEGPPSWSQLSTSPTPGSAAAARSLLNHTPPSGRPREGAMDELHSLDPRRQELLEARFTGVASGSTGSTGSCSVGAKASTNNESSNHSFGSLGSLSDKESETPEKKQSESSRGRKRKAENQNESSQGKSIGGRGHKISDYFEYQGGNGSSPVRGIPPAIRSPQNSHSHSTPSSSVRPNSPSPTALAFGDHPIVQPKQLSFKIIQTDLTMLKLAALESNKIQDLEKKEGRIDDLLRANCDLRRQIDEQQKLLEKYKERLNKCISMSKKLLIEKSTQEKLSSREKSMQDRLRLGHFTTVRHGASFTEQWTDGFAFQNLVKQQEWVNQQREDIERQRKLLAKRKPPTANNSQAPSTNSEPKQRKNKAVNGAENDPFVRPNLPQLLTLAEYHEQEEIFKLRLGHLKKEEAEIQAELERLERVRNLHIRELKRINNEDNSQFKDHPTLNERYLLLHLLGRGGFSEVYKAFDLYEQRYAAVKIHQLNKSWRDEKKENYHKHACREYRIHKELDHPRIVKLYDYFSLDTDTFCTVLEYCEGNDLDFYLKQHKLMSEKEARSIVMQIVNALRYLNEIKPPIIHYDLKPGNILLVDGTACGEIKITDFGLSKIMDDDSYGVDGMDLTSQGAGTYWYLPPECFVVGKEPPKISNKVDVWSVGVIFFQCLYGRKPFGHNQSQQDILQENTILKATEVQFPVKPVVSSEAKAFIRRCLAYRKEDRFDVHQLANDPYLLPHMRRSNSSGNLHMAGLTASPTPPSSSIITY
Outline: as §1

[3] = target: T3, 380 human recombinant protein kinases (Homo sapiens, UniProt P0C1S8); conditions: Wee1B(h), read-out: Inhibition rate (%)
T3 construct: purchased Eurofins (Celle Lévescault)
T3 sequence (P0C1S8 whole entry): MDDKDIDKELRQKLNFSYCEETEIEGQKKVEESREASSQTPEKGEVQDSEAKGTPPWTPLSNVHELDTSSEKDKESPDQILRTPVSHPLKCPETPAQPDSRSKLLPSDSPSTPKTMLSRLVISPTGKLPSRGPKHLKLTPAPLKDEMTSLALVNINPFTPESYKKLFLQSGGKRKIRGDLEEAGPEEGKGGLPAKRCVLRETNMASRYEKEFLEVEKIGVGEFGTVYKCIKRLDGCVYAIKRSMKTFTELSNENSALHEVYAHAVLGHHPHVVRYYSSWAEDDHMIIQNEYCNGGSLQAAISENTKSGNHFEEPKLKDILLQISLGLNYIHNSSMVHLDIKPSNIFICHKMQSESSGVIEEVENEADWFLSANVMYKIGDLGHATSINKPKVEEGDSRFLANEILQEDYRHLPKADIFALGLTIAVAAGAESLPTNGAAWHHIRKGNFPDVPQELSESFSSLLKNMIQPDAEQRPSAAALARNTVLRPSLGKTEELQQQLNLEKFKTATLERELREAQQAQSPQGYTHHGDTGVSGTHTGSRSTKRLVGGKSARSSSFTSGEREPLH
Outline: as §1

[4] = target: T4, 380 human recombinant protein kinases (Homo sapiens, UniProt P36888); conditions: Flt3(h), read-out: Inhibition rate
T4 construct: purchased Eurofins (Celle Lévescault)
T4 sequence (P36888 27-993): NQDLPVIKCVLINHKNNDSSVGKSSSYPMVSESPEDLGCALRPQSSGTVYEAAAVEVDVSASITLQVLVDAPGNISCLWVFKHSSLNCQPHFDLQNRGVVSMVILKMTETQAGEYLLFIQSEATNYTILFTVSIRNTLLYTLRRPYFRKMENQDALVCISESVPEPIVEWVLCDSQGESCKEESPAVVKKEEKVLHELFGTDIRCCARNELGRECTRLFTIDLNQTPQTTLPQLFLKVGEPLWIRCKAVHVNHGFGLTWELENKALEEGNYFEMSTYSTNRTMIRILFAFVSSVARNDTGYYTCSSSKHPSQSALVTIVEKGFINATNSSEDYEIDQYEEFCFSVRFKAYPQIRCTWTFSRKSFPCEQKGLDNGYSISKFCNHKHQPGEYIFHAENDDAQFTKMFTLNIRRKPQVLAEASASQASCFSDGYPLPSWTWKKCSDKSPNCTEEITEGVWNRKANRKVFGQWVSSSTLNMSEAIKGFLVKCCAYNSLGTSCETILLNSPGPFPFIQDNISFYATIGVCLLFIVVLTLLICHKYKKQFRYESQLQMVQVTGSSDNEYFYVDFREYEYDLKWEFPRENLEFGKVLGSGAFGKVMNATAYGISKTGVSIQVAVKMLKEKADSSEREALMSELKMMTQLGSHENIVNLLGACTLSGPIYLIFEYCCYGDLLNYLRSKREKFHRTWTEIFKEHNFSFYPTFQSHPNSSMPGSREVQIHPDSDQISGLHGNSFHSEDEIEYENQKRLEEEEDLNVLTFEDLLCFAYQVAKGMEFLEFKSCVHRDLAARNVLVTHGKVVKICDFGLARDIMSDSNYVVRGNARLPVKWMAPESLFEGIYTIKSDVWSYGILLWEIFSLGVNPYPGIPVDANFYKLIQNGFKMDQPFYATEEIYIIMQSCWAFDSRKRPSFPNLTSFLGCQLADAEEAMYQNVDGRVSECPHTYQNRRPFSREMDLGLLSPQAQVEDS
Outline: as §1

## C=CC(=O)Nc1cc(-c2cc(-c3cc4c([nH]3)CCNC4=O)ccn2)ccc1OC(F)(F)F [compound 11]
[1]; 10 nM
  inhibition at 0.01 µM: -2%
[1]; 100 nM
  inhibition at 0.1 µM: 5%
[1]; 1000 nM
  inhibition at 1 µM: 34%
[2]; 10 nM
  inhibition at 0.01 µM: 13%
[2]; 100 nM
  inhibition at 0.1 µM: 0%
[2]; 1000 nM
  inhibition at 1 µM: -5%
[3]; 10 nM
  inhibition at 0.01 µM: -2%
[3]; 100 nM
  inhibition at 0.1 µM: -4%
[3]; 1000 nM
  inhibition at 1 µM: 3%
[4]; 10 nM
  inhibition at 0.01 µM: -12%
[4]; 100 nM
  inhibition at 0.1 µM: -5%
[4]; 1000 nM
  inhibition at 1 µM: 24%
